# From patent US20190358174A1, “ACTIVE AGENTS AGAINST PROTOZOA” (Christian-Albrechts-Universität zu Kiel, priority 2016, published 2019)
# Read-outs that look alike come from different tables or passages of the source.
# Assays:
# Plasmodium falciparum = test: growth of Plasmodium falciparum culture (parasitaemia by FACS); format: cell-based
# Experimental: The effect of the following compounds on the growth of Plasmodium falciparum was tested using cultivated plasmodia:
# The plasmodium culture was maintained in 5% 0+ erythrocytes in RPMI 1640 medium with 0.5% Albumax at 37° C. […] A change of medium was made after 24 h and the compounds were added freshly.
# FNT wild-type = biological target: T1, FNT wild-type (Plasmodium falciparum, UniProt O77389); test: yeast test system, 14C-L-lactate uptake, FNT wild-type expressed in Saccharomyces cerevisiae; format: cell-based
# T1 construct: expressed in transfected cells; host or cells: Saccharomyces cerevisiae W303-1A jen1Δ ady2Δ, plasmid pDR196 (PMA promoter)
# T1 sequence (O77389 whole entry): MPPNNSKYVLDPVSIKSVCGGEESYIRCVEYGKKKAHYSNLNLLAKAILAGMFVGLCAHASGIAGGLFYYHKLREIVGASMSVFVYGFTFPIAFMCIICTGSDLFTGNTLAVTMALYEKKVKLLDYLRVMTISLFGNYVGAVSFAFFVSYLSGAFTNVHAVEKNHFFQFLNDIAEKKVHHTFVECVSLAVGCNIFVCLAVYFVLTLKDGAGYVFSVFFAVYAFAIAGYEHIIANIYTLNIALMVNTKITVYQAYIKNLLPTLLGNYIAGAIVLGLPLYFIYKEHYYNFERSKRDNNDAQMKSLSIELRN
# Text: (§1) The FNT of the wild-type plasmodium (available under accession number PF3D7_0316600 in the data bank PlasmoDB) and of the resistant plasmodia (position of the mutation in the open reading frame: guanine 319 to adenine) were expressed in the yeast Saccharomyces cerevisiae W303-1A jen1Δ ady2Δ from plasmid pDR196 (PMA promoter). In the yeast, the endogenous genes for the monocarboxylate transporter Jenlp (sequence accession No. CAA82062 NCBI) and Ady2p (sequence accession No. KZV 12856) were deleted (obtained from M. Casal, Universidade do Minho, Portugal).
# This yeast was grown in SD medium with addition of adenine, histidine, leucine, tryptophan and 2% (wt/v) glucose at 30° C. up to an OD600 of 0.8 to 1.0, harvested by centrifugation and washed once with water and centrifuged down again, and suspended in 50 mM HEPES/TRIS (pH 6.8) and adjusted to an OD600 of 50±10% and stored on ice. For contacting with one of the compounds a compound of one step of a dilution series in DMSO was provided in a reaction vessel and onto this 80 μL of the yeast suspension were pipetted. […] The lactate concentration obtained was 1 mM. After an incubation of 30 s the uptake of lacatate was stopped by a rapid dilution by means of adding of 1 ml ice cold water. From the yeast suspension diluted this way the yeast cells were brought onto a filter membrane by vacuum filtration, washed with 7 ml cold water and transferred with the filter membrane into 3 ml scintillation cocktail. After 24 h of incubation at 18° C. in the scintillation cocktail, in which the cells were lysed, the amount of radioactively labelled lactate was measured by means of a scintillation counter. The total amount of lactate which was taken up by the yeast was calculated from the measured amount of radioactively labelled lactate. As a positive control the yeast was treated equally in parallel testing with DMSO without one of the compounds and was regarded as 100% FNT activity, respectively 0% inhibition. In testings with the compound a lower amount of lactate taken up was found in comparison to the parallel positive control. As a negative control yeast was treated in parallel in which the endogenous genes for the monocarboxylate transporters Jenlp and Ady2p were deleted, but the FNT from plasmodium was not expressed. This negative control was regarded as 0% FNT activity, respectively 100% inhibition.
# (§2) As a representative for a Formiate-Nitrit-Transporter protein (FNT) from protozoa, the FNT of Plasmodium falciparum as wild-type and as […] mutant was used, which were each expressed in yeast and incubated with dilutions of the compounds to be tested as described in Example 1.
# Gly107Ser mutant of FNT = biological target: T2, Gly107Ser mutant of FNT (Plasmodium falciparum, UniProt O77389, G107S); test: yeast test system, 14C-L-lactate uptake, FNT Gly107Ser mutant expressed in Saccharomyces cerevisiae; format: cell-based
# T2 construct: expressed in transfected cells; host or cells: Saccharomyces cerevisiae W303-1A jen1Δ ady2Δ, plasmid pDR196 (PMA promoter)
# T2 sequence (O77389 whole entry G107S): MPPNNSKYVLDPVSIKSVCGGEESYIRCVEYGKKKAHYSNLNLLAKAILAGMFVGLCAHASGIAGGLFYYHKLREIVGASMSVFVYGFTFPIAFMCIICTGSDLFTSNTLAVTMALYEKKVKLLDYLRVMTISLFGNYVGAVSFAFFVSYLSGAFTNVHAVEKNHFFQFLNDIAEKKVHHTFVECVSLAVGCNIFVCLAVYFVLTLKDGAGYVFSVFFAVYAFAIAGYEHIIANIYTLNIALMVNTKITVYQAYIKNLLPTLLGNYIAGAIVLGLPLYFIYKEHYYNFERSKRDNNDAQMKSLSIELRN
# Text: as §1
# This yeast was grown in SD medium with addition of adenine, histidine, leucine, tryptophan and 2% (wt/v) glucose at 30° C. up to an OD600 of 0.8 to 1.0, harvested by centrifugation and washed once with water and centrifuged down again, and suspended in 50 mM HEPES/TRIS (pH 6.8) and adjusted to an OD600 of 50±10% and stored on ice. For contacting with one of the compounds a compound of one step of a dilution series in DMSO was provided in a reaction vessel and onto this 80 μL of the yeast suspension were pipetted. After an incubation on ice for 15 to 20 min 20 μL 5 mM Na-L-lacate plus 0.04 μCi radioactively labelled L-(1-^14C) lactate was added. The lactate concentration obtained was 1 mM. After an incubation of 30 s the uptake of lacatate was stopped by a rapid dilution by means of adding of 1 ml ice cold water. From the yeast suspension diluted this way the yeast cells were brought onto a filter membrane by vacuum filtration, washed with 7 ml cold water and transferred with the filter membrane into 3 ml scintillation cocktail. After 24 h of incubation at 18° C. in the scintillation cocktail, in which the cells were lysed, the amount of radioactively labelled lactate was measured by means of a scintillation counter. The total amount of lactate which was taken up by the yeast was calculated from the measured amount of radioactively labelled lactate. As a positive control the yeast was treated equally in parallel testing with DMSO without one of the compounds and was regarded as 100% FNT activity, respectively 0% inhibition. In testings with the compound a lower amount of lactate taken up was found in comparison to the parallel positive control. As a negative control yeast was treated in parallel in which the endogenous genes for the monocarboxylate transporters Jenlp and Ady2p were deleted, but the FNT from plasmodium was not expressed. This negative control was regarded as 0% FNT activity, respectively 100% inhibition.
# as §2
# [1] = test system: resistant plasmodia (FNT mutation Gly107Ser); test: microbe, parasite or virus in culture; format: cell-based, Plasmodium falciparum; details: for IC50: Plasmodium falciparum, read-out: plasmodium culture IC50 against Gly107Ser mutant
# [2] = Plasmodium falciparum; 48 h after addition, parasitaemia by FACS; read-out: inhibitory effect IC50 on the growth of the plasmodium culture
# [3] = yeast test system, 15 to 20 min preincubation, 1 mM lactate, pH 6.8, read-out: IC50 against FNT wild-type
# [4] = Plasmodium falciparum; read-out: plasmodium culture IC50 against wild-type
smiles,measurement,setting,value
"COc1ccc2c(c1)OC(O)(C(F)(F)C(F)(F)F)CC2=O (stereo not shown) [MMV007839, reference compound]",IC50,Plasmodium falciparum; [2],0.14 µM
same,IC50,"FNT wild-type; preincubation 20 min, read-out: IC50 of lactate transport",0.17 µM
same,IC50,"FNT wild-type; preincubation 24 h prior to addition of lactate, read-out: IC50 of lactate transport",0.015 µM
same,reversibility of FNT inhibition by washing of the cells,"FNT wild-type; washing with 50 mM HEPES-Tris, pH 6.8",could not be reduced by washing
CC(=O)C=C(O)C(F)(F)C(F)(F)F [BH-204],IC50,FNT wild-type; [3],1.9 µM
same,IC50,"Gly107Ser mutant of FNT; yeast test system, 15 to 20 min preincubation, 1 mM lactate, pH 6.8, read-out: IC50 against Gly107Ser mutant of FNT",8.1 µM
O=C(/C=C(\O)C(F)(F)C(F)(F)F)/C=C/c1ccccc1 [BH-292],IC50,FNT wild-type; [3],0.26 µM
same,IC50,Gly107Ser mutant of FNT,25 µM
COc1ccc(CCC(=O)/C=C(\O)C(F)(F)C(F)(F)F)cc1 [BH-324.2],IC50,FNT wild-type,0.16 µM
same,IC50,Gly107Ser mutant of FNT,6.3 µM
same,inhibition of the Gly107Ser mutant (in words),Gly107Ser mutant of FNT,inhibit the Gly107Ser mutant significantly
O=C(/C=C(\O)C(F)(F)C(F)(F)F)c1ccc(Cl)cc1 [BH-301],IC50,FNT wild-type,0.12 µM
same,IC50,Gly107Ser mutant of FNT,5.8 µM
same,inhibition of the Gly107Ser mutant (in words),Gly107Ser mutant of FNT,inhibit the Gly107Ser mutant significantly
"O=C1CC(O)(C(F)(F)C(F)(F)F)Oc2ccccc21 (stereo not shown) [MMV000972, reference compound]",IC50,Plasmodium falciparum; [2],1.7 µM
CC(C)(O)CC(=O)/C=C(\O)C(F)(F)C(F)(F)F [BH-262],IC50,Plasmodium falciparum; [4],10 µM
same,IC50,[1],70 µM
O=C(/C=C(\O)C(F)(F)C(F)(F)F)c1ccc(Cl)cc1O [BH-317],inhibition of the plasmodium culture (in words),Plasmodium falciparum,effective inhibition
same,IC50,Plasmodium falciparum; [4],0.37 µM
same,inhibition of the FNT in the yeast test system (in words),FNT wild-type,effective inhibition
same,IC50,FNT wild-type; [3],0.12 µM
Cn1ccc(C(=O)/C=C(\O)C(F)(F)C(F)(F)F)c1 [BH-269],IC50,Gly107Ser mutant of FNT,15 µM
O=C(/C=C(\O)C(F)(F)C(F)(F)F)c1cc2ccccc2o1 [BH-306],IC50,FNT wild-type; [3],0.18 µM
same,IC50,Gly107Ser mutant of FNT,15 µM
CCOc1ccc(C(=O)/C=C(\O)C(F)(F)C(F)(F)F)c(O)c1 [BH-326],inhibition of the plasmodium culture (in words),Plasmodium falciparum,effective inhibition
same,IC50,Plasmodium falciparum; [4],0.05 µM
same,inhibition of the FNT in the yeast test system (in words),FNT wild-type,effective inhibition
same,IC50,FNT wild-type; [3],0.24 µM
O=C(/C=C(\O)C(F)(F)C(F)(F)F)c1ccc(OCc2ccccc2)cc1O [BH-388],IC50,FNT wild-type; [3],0.89 µM
CC(C)Oc1ccc(C(=O)/C=C(\O)C(F)(F)C(F)(F)F)c(O)c1 [BH-340],inhibition of the plasmodium culture (in words),Plasmodium falciparum,effective inhibition
same,IC50,Plasmodium falciparum; [4],0.1 µM
same,inhibition of the FNT in the yeast test system (in words),FNT wild-type,effective inhibition
same,IC50,FNT wild-type; [3],0.4 µM
COc1ccc(C(=O)/C=C(\O)C(F)(F)C(F)(F)F)cc1 [BH-296],IC50,Plasmodium falciparum; [4],3.4 µM
same,IC50,[1],8.9 µM
same,effect against the resistant parasites (in words),[1]; pharmaceutically acceptable concentration range,effective against the resistant parasites
same,IC50,FNT wild-type; [3],0.14 µM
same,inhibition of the Gly107Ser mutant (in words),Gly107Ser mutant of FNT,inhibit the Gly107Ser mutant significantly
COc1ccc(C(=O)/C=C(\O)C(F)(F)C(F)(F)C(F)(F)F)c(O)c1 [BH-362],IC50,"Plasmodium falciparum; Plasmodium falciparum, read-out: plasmodium culture IC50 against wild-type",0.57 µM
same,IC50,FNT wild-type; [3],0.25 µM
